Test [1] relates to Mycoplasmopsis synoviae. In words: Potency index, ratio of tiamulin MIC to test compound MIC against anti-mycoplasma activity against Mycoplasma synoviae WVU1853 NCTC10124. The test is classed as functional.
The subject of test [2] is Cell membrane. In words: Disruption of bacterial cell membrane in Escherichia coli ATCC 25922 incubated for 4 hrs by FESEM analysis. The test is classed as subcellular.
Test [3] deals with Cell membrane. The test is described as follows: Disruption of bacterial cell membrane in methicillin-resistant Staphylococcus aureus ATCC 33591 assessed as increase in red fluorescence intensity at MIC incubated for 2 hrs by MycoLightGreen1198/PI staining based confocal laser scanning microscopy. Format: subcellular.
Test [4] concerns Metamycoplasma hominis. In words: Anti-mycoplasma activity against Mycoplasma hominis PG-21 ATCC23114 assessed as inhibition of mycoplasma growth measured after 7 days by broth microdilution method. Format: functional. The note with it: PG-21 ATCC23114, 168 h, time 7 day. In general terms: Broth dilution looks for growth in wells or tubes with falling amounts of substance.
The test system of test [5] is Enterococcus. In words: Antibacterial activity against vancomycin-resistant Enterococcus 80 assessed as inhibition of bacterial growth incubated for 24 hrs by broth microdilution method. Format: functional.

Activity calls are given as the source filed them.

For orientation: MIC means the smallest concentration in the dilution series that meets the test's criterion for growth inhibition. For the compound `C=C[C@]1(C)C[C@@H](OC(=O)CSc2nc(-c3cc[n+](Cc4ccc(C)cc4)cc3)cs2)[C@]2(C)[C@H](C)CC[C@]3(CCC(=O)[C@H]32)[C@@H](C)[C@@H]1O.[Br-]`, the Ratio in test [1] worked out at 10. For the same compound, in test [2], the Activity result was “Dose-Dependent Effect”. For the same compound, the result in test [3] was Active. Also, the minimum inhibitory concentration (MIC) in test [4] amounted to 0.015 µg/mL; in test [5] it was 2 µg/mL.
